Laboratory results as given in patent publication US12195450B2, “Small molecule neutral sphingomyelinase 2 (nSMase2) inhibitors” (The Johns Hopkins University, priority 2019, dated 2025).
Structures can show the parent of a compound that is named as a salt.

Target: T1, nSMase2 (Homo sapiens, UniProt Q9NY59)
T1 sequence (Q9NY59 1-655): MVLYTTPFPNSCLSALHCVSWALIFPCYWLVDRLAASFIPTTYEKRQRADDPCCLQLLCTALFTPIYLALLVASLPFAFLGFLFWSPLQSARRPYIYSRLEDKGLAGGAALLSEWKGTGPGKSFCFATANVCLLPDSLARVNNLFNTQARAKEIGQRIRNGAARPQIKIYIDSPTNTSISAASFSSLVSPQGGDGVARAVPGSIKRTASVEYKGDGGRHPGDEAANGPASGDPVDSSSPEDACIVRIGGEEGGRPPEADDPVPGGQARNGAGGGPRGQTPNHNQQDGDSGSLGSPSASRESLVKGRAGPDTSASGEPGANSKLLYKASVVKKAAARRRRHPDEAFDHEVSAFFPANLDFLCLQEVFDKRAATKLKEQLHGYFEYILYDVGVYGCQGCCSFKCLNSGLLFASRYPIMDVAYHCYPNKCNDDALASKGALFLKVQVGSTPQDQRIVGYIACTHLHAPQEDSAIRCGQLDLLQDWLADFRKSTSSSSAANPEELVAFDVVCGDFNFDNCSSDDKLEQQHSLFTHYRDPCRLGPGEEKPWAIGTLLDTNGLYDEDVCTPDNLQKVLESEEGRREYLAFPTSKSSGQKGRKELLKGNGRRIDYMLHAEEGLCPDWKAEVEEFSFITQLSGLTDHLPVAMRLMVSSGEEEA
Test: Inhibition of nSMase2 (IC50)
Assay type: biochemical

[1] = Table 1, Representative Inhibitors of nSMase2 of Formula (I)

| SMILES | IC50 [1] | IC50 (Table 2, Inhibition of nSMase) |
| --- | --- | --- |
| Oc1c(OC2CCCC2)cc(-c2nc(-c3ccccc3)c(-c3cccs3)[nH]2)cc1OC1CCCC1 [Compound 30, 2,6-bis(cyclopentyloxy)-4-(5-phenyl-4-(thiophen-2-yl)-1H-imidazol-2-yl)phenol] | 100 nM | 100 nM |
| COc1cc(C2=NC3CCCCC3N2)cc(OC)c1O (centres unmarked) [Compound 3546] | 70000 nM |  |
| COc1cc(-c2ncc[nH]2)cc(OC)c1O [Compound 18, 4-(1H-imidazol-2-yl)-2,6-dimethoxyphenol] | 400 nM | 400 nM |
| COc1cc(-c2ncc(-c3ccccc3)[nH]2)cc(OC)c1O [Compound 23, 2,6-dimethoxy-4-(5-phenyl-1H-imidazol-2-yl)phenol hydrochloride] |  | 70 nM |
| Oc1c(OCC(F)(F)F)cc(-c2nc(-c3ccccc3)c(-c3cccs3)[nH]2)cc1OCC(F)(F)F [Compound 36, 4-(4-phenyl-5-(thiophen-2-yl)-1H-imidazol-2-yl)-2,6-bis(2,2,2-trifluoroethoxy)phenol] | 60 nM | 60 nM |
| COc1cc(-c2ncc(C)[nH]2)cc(OC)c1O [Compound 24, 2,6-dimethoxy-4-(5-methyl-1H-imidazol-2-yl)phenol] | 200 nM | 200 nM |
| CC(C)Oc1cc(-c2nc(-c3ccccc3)c(-c3cccs3)[nH]2)cc(OC(C)C)c1O [Compound 22, 2,6-diisopropoxy-4-(4-phenyl-5-(thiophen-2-yl)-1H-imidazol-2-yl)phenol] | 20 nM | 30 nM |
| COc1cc(-c2nc(-c3ccccc3)c(C(C)C)[nH]2)cc(OC)c1O [Compound 48, 4-(5-isopropyl-4-phenyl-1H-imidazol-2-yl)-2,6-dimethoxyphenol] | 60 nM | 60 nM |
| CCc1nc(-c2cc(OC)c(O)c(OC)c2)[nH]c1-c1ccccn1 [Compound 40, 4-(4-ethyl-5-(pyridin-2-yl)-1H-imidazol-2-yl)-2,6-dimethoxyphenol hydrochloride] | 500 nM | 500 nM |
| COc1cc(-c2ncc(C34CC5CC(CC(C5)C3)C4)[nH]2)cc(OC)c1O [Compound 39, 2,6-dimethoxy-4-(5-adamantyl-1H-imidazol-2-yl)phenol] | 200 nM | 200 nM |
| COc1cc(-c2nc(-c3cccs3)c(C)[nH]2)cc(OC)c1O [Compound 41, 2,6-dimethoxy-4-(4-methyl-5-(thiophen-2-yl)-1H-imidazol-2-yl)phenol hydrochloride] | 10 nM | 10 nM |
| CCCOc1cc(-c2nc(-c3cccs3)c(-c3ccccc3)[nH]2)cc(OCCC)c1O [Compound 31, 4-(5-phenyl-4-(thiophen-2-yl)-1H-imidazol-2-yl)-2,6-dipropoxyphenol] | 40 nM | 40 nM |
| CC(C)(C)Oc1cc(-c2nc(-c3ccccc3)c(-c3cccs3)[nH]2)cc(OC(C)(C)C)c1O [Compound 45, 2,6-di-tert-butoxy-4-(4-phenyl-5-(thiophen-2-yl)-1H-imidazol-2-yl)phenol] | 400 nM | 400 nM |
| COc1cc(-c2nc(-c3ccc(C)cc3)c[nH]2)cc(OC)c1O [Compound 29, 2,6-dimethoxy-4-(4-p-tolyl-1H-imidazol-2-yl)phenol] | 100 nM | 100 nM |
| COc1cc(-c2nc(-c3ccccc3)c(-c3cccs3)n2C)cc(OC)c1O [Compound 3455] | 60000 nM |  |
| COc1cc(-c2nc(C)c(C)[nH]2)cc(OC)c1O [Compound 19, 4-(4,5-dimethyl-1H-imidazol-2-yl)-2,6-dimethoxyphenol hydrochloride] | 500 nM | 500 nM |

| SMILES | IC50 [1] | IC50 (Table 2, Inhibition of nSMase) |
| --- | --- | --- |
| COc1cc(-c2nc3c(C)ccc(C)c3[nH]2)cc(OC)c1O [Compound 44, 4-(4,7-dimethyl-1H-benzo[d]imidazol-2-yl)-2,6-dimethoxyphenol] | 800 nM | 800 nM |
| COc1cc(-c2nc(-c3ccccc3)c(-c3ccccc3)[nH]2)cc(OC)c1O [Compound 25, 4-(4,5-diphenyl-1H-imidazol-2-yl)-2,6-dimethoxyphenol] |  | 20 nM |
| COc1cc(-c2ncc(-c3ccc(Br)cc3)[nH]2)cc(OC)c1O [Compound 26, 4-(5-(4-bromophenyl)-1H-imidazol-2-yl)-2,6-dimethoxyphenol] | 200 nM | 200 nM |
| COc1cc(-c2nc3ccccc3[nH]2)cc(OC)c1O [Compound 42, 4-(1H-benzo[d]imidazol-2-yl)-2,6-dimethoxyphenol] | 600 nM | 600 nM |
| COc1cc(-c2nc(-c3ccc(C)cc3)c(-c3ccc(C)cc3)[nH]2)cc(OC)c1O [Compound 38, 4-(4,5-di-p-tolyl-1H-imidazol-2-yl)-2,6-dimethoxyphenol] | 60 nM | 60 nM |
| COc1cc(-c2nc(-c3cccs3)c(-c3cccs3)[nH]2)cc(OC)c1O [Compound 27, 4-(4,5-di(thiophen-2-yl)-1H-imidazol-2-yl)-2,6-dimethoxyphenol] | 20 nM |  |
| COc1cc(-c2nc(-c3ccco3)c(-c3ccco3)[nH]2)cc(OC)c1O [Compound 34, 4-(4,5-di(furan-2-yl)-1H-imidazol-2-yl)-2,6-dimethoxyphenol hydrochloride] | 30 nM | 30 nM |
| CCCCc1[nH]c(-c2cc(OC)c(O)c(OC)c2)nc1C [Compound 32, 4-(5-butyl-4-methyl-1H-imidazol-2-yl)-2,6-dimethoxyphenol] | 60 nM |  |
| COc1cc(-c2nc(C(C)C)c(C(C)C)[nH]2)cc(OC)c1O [Compound 47, 4-(4,5-diisopropyl-1H-imidazol-2-yl)-2,6-dimethoxyphenol] | 60 nM | 60 nM |
| CCCCc1nc(-c2cc(OC)c(O)c(OC)c2)[nH]c1CCCC [Compound 46, 4-(4,5-dibutyl-1H-imidazol-2-yl)-2,6-dimethoxyphenol] | 200 nM | 200 nM |
| CCc1nc(-c2cc(OCC(F)(F)F)c(O)c(OCC(F)(F)F)c2)[nH]c1CC [Compound 37, 4-(4,5-diethyl-1H-imidazol-2-yl)-2,6-bis(2,2,2-trifluoroethoxy)phenol] | 700 nM | 700 nM |
| COc1cc(-c2nc3c([nH]2)CCCC3)cc(OC)c1O [Compound 20, 2,6-dimethoxy-4-(4,5,6,7-tetrahydro-1H-benzo[d]imidazol-2-yl)phenol] | 400 nM | 400 nM |
| CCc1nc(-c2cc(OC)c(O)c(OC)c2)[nH]c1CC [Compound 33, 4-(4,5-diethyl-1H-imidazol-2-yl)-2,6-dimethoxyphenol] | 80 nM | 80 nM |
| COc1cc(-c2nc(C)c(-c3ccccc3)[nH]2)cc(OC)c1O [Compound 35, 2,6-dimethoxy-4-(4-methyl-5-phenyl-1H-imidazol-2-yl)phenol] | 20 nM |  |
| COc1cc(-c2nc3cccnc3[nH]2)cc(OC)c1O [Compound 43, 4-(3H-imidazo[4,5-b]pyridin-2-yl)-2,6-dimethoxyphenol] | 4000 nM | 4000 nM |
| COc1ccc(-c2nc(-c3cc(OC)c(O)c(OC)c3)[nH]c2-c2ccc(OC)cc2)cc1 [Compound 28, 4-(4,5-bis(4-methoxyphenyl)-1H-imidazol-2-yl)-2,6-dimethoxyphenol] | 20 nM |  |
